In patent US20230277504A1, “COMPOSITIONS AND METHODS COMPRISING CELECOXIB OR RELATED COMPOUNDS AND DEXTROMETHORPHAN” (ANTECIP BIOVENTURES II LLC, priority 2012, published 2023):
Where “and” joins values, the source holds several entries; their conditions need not be identical. Equal entries are not always repeated. Where two headings read alike, the source gives them in different places.

Assays:
[1] = biological target: T1, dextromethorphan metabolism (demethylation; CYP2D6) in human liver microsomes (Homo sapiens, UniProt P10635); assay: Inhibition of dextromethorphan metabolism in human liver microsomes; assay type: in vitro ADME
T1 construct: in the presence of dextromethorphan (2.5 μM) and human liver microsomes (0.5 mg/mL) at 37° C; from tissue; host or cells: human liver microsomes
Method: Inhibition of dextromethorphan metabolism was examined using human liver microsomes. […] In addition, the assay contained NADPH (2 mM), MgCl2 (3 mM), and potassium phosphate buffer (50 mM) at pH 7.4. The assay was initiated by adding the NADPH, and incubation was terminated after 10 minutes by addition of acetonitrile. The samples were centrifuged, and the metabolism of dextromethorphan was analyzed by LC/MS/MS. […] The same assay was carried out on a number of NSAIDs.

pain = settings: cited from earlier work
[2] = extensive metabolizers of dextromethorphan; 'believed to be'; cited from earlier work

T1 sequence (P10635 whole entry): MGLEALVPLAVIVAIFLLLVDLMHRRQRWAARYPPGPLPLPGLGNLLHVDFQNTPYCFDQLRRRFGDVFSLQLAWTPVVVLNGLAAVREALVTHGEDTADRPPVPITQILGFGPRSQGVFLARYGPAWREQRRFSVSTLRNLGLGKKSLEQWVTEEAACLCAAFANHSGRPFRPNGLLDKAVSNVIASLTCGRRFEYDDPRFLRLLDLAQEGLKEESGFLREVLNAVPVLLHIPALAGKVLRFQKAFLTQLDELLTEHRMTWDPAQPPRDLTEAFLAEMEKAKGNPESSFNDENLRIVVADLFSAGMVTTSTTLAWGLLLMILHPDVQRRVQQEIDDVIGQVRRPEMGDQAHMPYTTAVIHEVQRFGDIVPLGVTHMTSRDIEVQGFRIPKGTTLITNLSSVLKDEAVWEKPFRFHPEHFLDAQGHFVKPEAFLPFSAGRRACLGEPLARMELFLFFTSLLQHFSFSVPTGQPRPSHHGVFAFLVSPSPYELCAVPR

COc1ccc2cc(CC(=O)O)ccc2c1 [6-methoxy-2-naphthyl acetic acid]
IC50 ([1]; human liver microsomes 0.5 mg/mL, dextromethorphan 2.5 μM, NADPH 2 mM, 37° C., pH 7.4, 10 minutes, LC/MS/MS, read-out: IC50 (inhibition of dextromethorphan metabolism)): > 1760 µM

Cc1ccc(-c2cc(C(F)(F)F)nn2-c2ccc(S(N)(=O)=O)cc2)cc1 [Celecoxib]
IC50 [1]: 2.6 to 2.9 µM | times as active at inhibiting the metabolism of dextromethorphan as the next best compound [1]: about five | IC50 ([1]; IC50 (inhibition of dextromethorphan metabolism), human liver microsomes 0.5 mg/mL, dextromethorphan 2.5 μM, NADPH 2 mM, 37° C., pH 7.4, 10 minutes, LC/MS/MS): 2.6 µM and 2.9 µM | times as active at inhibiting the metabolism of dextromethorphan as 6-methoxy-2-naphthyl acetic acid ([1]; human, 10 min, pH 7.4): more than 500 times

CC(C(=O)O)c1ccc(-c2ccccc2)c(F)c1 (stereo not shown) [Flurbiprofen]
IC50 [1]: > 320 µM

CS(=O)(=O)c1ccc(C2=C(c3ccccc3)C(=O)OC2)cc1 [Rofecoxib]
IC50 [1]: 44.5 µM

CC1=C(CC(=O)O)c2cc(F)ccc2/C1=C\c1ccc([S+](C)[O-])cc1 (stereo not shown) [Sulindac]
IC50 [1]: > 36 µM

Cc1onc(-c2ccccc2)c1-c1ccc(S(N)(=O)=O)cc1 [Valdecoxib]
IC50 [1]: 15.2 µM

COc1ccc2c(c1)[C@]13CCCC[C@@H]1[C@H](C2)N(C)CC3 [dextromethorphan, Dextromethorphan]
analgesic efficacy (pain; double-blind human studies in chronic and neuropathic pain, review of Weinbroum et al.): ineffective for the most part | pain reduction versus placebo (pain; patients with diabetic neuropathy and postherpetic neuralgia, Sang et al.): did not reduce pain significantly more than placebo | analgesic efficacy (pain; patients with facial neuralgias, Gilron et al.): little or no analgesic efficacy | clearance [2]: about 110 L/min
